What all share (assay type): functional, cell-based
One test concerns A549. As to the kind of experiment: Cytotoxicity against human A549 cells after 24 hrs by WST assay. Particulars: A549, 24 h.
The next test deals with KB. As to the kind of experiment: Cytotoxicity against human KB cells after 24 hrs by WST assay.
Test [1] can be described thus: Cytotoxicity against human HCT116 cells after 24 hrs by WST assay. The conditions noted are these: HCT-116, 24 h.

pIC50: −log10 of the molar value.

As for `CC1=C(C)[C@H]2[C@H](Cc3ccccc3)NC(=O)[C@]23OC(=O)/C=C/C(=O)CCC[C@@H](C)C/C=C/[C@H]3[C@@H]1O`, the negative-log IC50 (pIC50) in the test with A549 was 4.53; with KB, 4.70; in test [1], 4.42.
`CC1=C(C)[C@H]2[C@H](Cc3ccccc3)NC(=O)[C@]23OC(=O)CCC(=O)CCC[C@@H](C)C/C=C/[C@H]3[C@@H]1O`: the results for the pIC50 (with A549; in the test with KB; in test [1]) were 4.43, less than 4.40 and less than 4.40, respectively.
As to `CC1=C(C)[C@H]2[C@H](Cc3ccccc3)NC(=O)[C@]23OC(=O)CC[C@H](O)CCC[C@@H](C)C/C=C/[C@H]3[C@@H]1O`, the pIC50 (with A549; in the test with KB; in test [1]) was less than 4.40 throughout.
In the case of `C=C1[C@@H](C)[C@H]2[C@H](Cc3ccccc3)NC(=O)[C@]23OC(=O)CCC(=O)CCC[C@@H](C)C/C=C/[C@H]3[C@@H]1O`, the results for the pIC50 (in the test on A549; with KB; in test [1]) were 4.41, 4.43 and 4.41, respectively.
As for `CC1=C[C@@H]2/C=C/C[C@H](C)CCCC/C=C/C(=O)O[C@]23C(=O)N[C@@H](Cc2ccccc2)[C@@H]3[C@@H]1C`, the values for the negative logarithm of the IC50 (pIC50) (with A549; with KB; in test [1]) were 4.44, 4.71 and 4.74, respectively.
For `COc1cccc2c1C(=O)c1c(O)c3c(c(O)c1C2=O)C[C@@](O)(C(=O)CO)C[C@@H]3O[C@H]1C[C@H](N)[C@H](O)[C@H](C)O1` [DOXORUBICIN] the same measures were 5.89, 5.37 and 5.66.

By pIC50 is commonly meant the IC50 on a negative log10 scale, so that one unit is a factor of ten. Lower therefore signals a high IC50.

The record behind these values is ChEMBL document CHEMBL3399960, “Cytochalasin derivatives from a jellyfish-derived fungus Phoma sp” (Bioorg Med Chem Lett, 2015).
